The text below walks through data of patent US20240132955A1, “BENIGN SCAR-FORMING CLEAVABLE LINKERS” (Ultima Genomics, Inc., priority 2021, published 2024).

Holding throughout (assay type): biochemical
Experiment [1] deals with template nucleic acid starting with AGTCTTTGGGTT
The experiment in a line: Sequencing assays with capping or immolating linkers (Example 9, FIG. 16). To be noted: DPDS in U dark tap flows; 100% labeled U, 10% A, 20% C, 10% G; compared to FIG. 16A. As for the experimental part:
In this example, a set of sequencing assays were performed by extending a primer against the same template nucleic acid starting with AGTCTTTGGGTT in the presence of alternating flows of single fluorescently labeled nucleotides provided as cycles of U, A, C, and then G. In between each flow, the fluorescent labels were detected, cleaved, and optionally capped with dipyridyl disulfide (DPDS). Each labeled nucleotide flow was then followed by a “dark tap” flow consisting of 100% unlabeled nucleotides to maintain phasing. Furthermore, some assays utilized nucleotides with immolating linkers.
In each figure, the y-axes provide fluorescence intensity following labeled nucleotide incorporation, and the four plots (from top to bottom) separately provide the results of uridine, adenosine, cytidine, and guanosine incorporation steps, with individual cycles progressing from left to right. In particular, a closer look is taken at the first 4 flow-cycles of U-A-C-G, where nucleotides are expected to be incorporated in the order of T-C (cycle 1; U, A, C, G flows being a complete single cycle), A-G (cycle 2), AAA-CCC (cycle 3), AA (cycle 4). Here nucleotides incorporated in each U-A-C-G flow-cycle are separated with square brackets. […]

Experiment [2] has as its system template strand comprising the 3′ sequence TCAGTGGTTG
Briefly: Sequencing assay with capping reagent DPDS in U dark tap flows (Example 5). To be noted: DPDS only in U dark tap flows; 100% labeled U, 10% A, 20% C, 10% G. The source says:
In this example, a set of labeled nucleotide reagents were contacted to a primer hybridized to a template strand comprising the 3′ sequence TCAGTGGTTG under conditions suitable for extension. Fluorescently labeled adenosine, cytidine, and guanosine nucleotides were of the structure indicated in FIG. 10A, while labeled uridine nucleotides were of the structure provided in FIG. 10B. Different canonical nucleotide types were provided in separate, sequential flows, starting with uridine (U), followed by adenosine (A), cytidine (C), and finally guanosine (G), before repeating the cycle beginning again with U. Flows contained anywhere from 10% to 100% labeled nucleotides, with the remaining nucleotides provided in their natural, unlabeled form. In between each flow, the fluorescent labels were detected, cleaved, and optionally capped. Each labeled nucleotide flow was then followed by a “dark tap” flow consisting of 100% unlabeled nucleotides in order to maintain phasing.
FIG. 10E summarizes the sequencing results of an assay utilizing flows with 100% labeled U, 10% labeled A, 20% labeled C, 10% labeled G, and the capping reagent DPDS. provided in only the U “dark tap” nucleotide flows. […] This was likely due to capping reagent cleavage from the nucleotide scars, as the linker cleavage reagent was likely also active in removing caps from scar moieties. […]

Experiment [3] deals with template nucleic acid sequence. Briefly: Sequencing assays with different capping reagents (Example 6, FIG. 11). To be noted: for fluorescence intensities for subsequent incorporation steps: capping between flows, compared with assay without capping reagents. As for the experimental part:
Extension and sequencing performance were tested for a set of labeled nucleotides and capping reagents. The labeled nucleotides used in this example consisted of the dye-linkers as shown in FIG. 9A on each of the four nucleotides. A set of sequencing assays were performed by extending a primer against a template nucleic acid sequence in the presence of alternating flows of single fluorescently labeled nucleotides provided as cycles of U, A, C, and then G. In between each flow, the fluorescent labels were detected, cleaved, and optionally capped with one of ethyl propiolate (EP), iodoacetamide (IAc), methyl methanethiosulfonate (MMTS), or dipyridyl disulfide (DPDS). Each labeled nucleotide flow was then followed by a “dark tap” flow consisting of 100% unlabeled nucleotides to maintain phasing.
FIG. 11 summarizes the results of the sequencing assays in table 1100. Table 1100 provides the results of uridine, adenosine, cytidine, and guanosine incorporation steps performed without any capping agents or in the presence of different capping agents. Assay A illustrates results from sequencing assays performed without capping reagents. Following a high-efficiency first nucleotide incorporation step with labeled uridine, subsequent nucleotide incorporation steps were suppressed, including subsequent uridine additions.

As for dipyridyl disulfide [DPDS], the “labeled A incorporation” value in experiment [1] is listed as “greatly enhanced”. In experiment [2], the “incorporation efficiency for the next flow (A)” value is “increased the incorporation efficiency for the next flow”. In addition, the “effectiveness as capping reagent” value in experiment [3] (among EP, IAc, MMTS, DPDS) is given as “most effective”. For the same compound, the “fluorescence intensities from subsequent nucleotide incorporations, comparison among capping assays” value in experiment [3] (assays B-E) is “highest intensities”. Also, the “fluorescence intensities for subsequent incorporation steps” value in experiment [3] was “high intensities”.

For the compound `C#CC(=O)OCC` [EP, ethyl propiolate], the “fluorescence intensities for subsequent incorporation steps” value in experiment [3] is “high intensities”.

As for `NC(=O)CI` [IAc, iodoacetamide], the “fluorescence intensities for subsequent incorporation steps” value in experiment [3] was “high intensities”.
